Reference: publication PMC8155176, “Reversible modulation of circadian time with chronophotopharmacology” (Nature Communications, 2021)

Experiments:
U2OS cells = assay: Circadian phase control in U2OS reporter cells; assay type: cell-based, human
Excerpt: Hypothetically, a transient change in period will lead to a phase change, consequently providing a relevant approach to jetlag treatment. Therefore, we applied visible-light responsive modulator 9 to control the circadian phase (Fig. 7). The compound was initially irradiated with green light for inactivation (cis-enriched 9, Fig. 7a, timepoint A) and applied to U2OS cells for luminescence rhythm measurement. On the next day, the cells were irradiated with violet light for compound activation or kept in dark (Fig. 7a, timepoint B).
Fig. 7 Circadian phase control using chronophotopharmacology. Green light (λmax = 530 nm)-irradiated compound 9 was applied to U2OS cells at 0 h (A). On the next day (B), the cells were irradiated with violet light (λmax = 400 nm) for 0 min (black and green lines), 10 min (light violet line), or 20 min (dark violet line). After 48 h or 72 h (C), the cells were irradiated with green light (λmax = 530 nm) for 0 min (black line) or 30 min (green, light violet, and dark violet lines). Luminescence rhythm profiles (average of n = 6) are shown in a. […] Luminescence is given in arbitrary units. n = 6 biologically independent samples. […]
Stable U2OS reporter cells harboring Bmal1-dLuc reporter were suspended in phenol red-free culture medium [DMEM (D2902, Sigma) supplemented with 10% fetal bovine serum, 3.5 mg/mL D-glucose, 3.7 mg/mL sodium bicarbonate, 0.29 mg/mL L-glutamine, 100 units/mL penicillin, and 100 µg/mL streptomycin] and plated onto a white, solid-bottom 384-well plates at 30 µL (3000 cells) per well. […] Luminescence was recorded every 100 min in a microplate reader, Infinite M200Pro (Tecan). For the phase control experiments, cellular light irradiation was performed in a dark 32 °C room and luminescence was recorded in a microplate reader Synergy H1 (BioTek) placed in the same room, to avoid possible effect of transient temperature change on the phase. Circadian period and phase were determined from luminescence rhythms by a curve fitting program MultiCycle (Actimetrics). […]

spleen explants = assay: Ex vivo circadian period, spleen explants of Per2::Luc knock-in mice; design: species or system mouse; details: 12 µM
Experimental: Next, we applied the light-dependent period control to the tissue level using explants of Per2::Luc knock-in reporter mice. The mice express PER2-luciferase fusion protein under control of the endogenous Per2 promoter. […] The spleen explants were treated with thermally adapted trans-9, then irradiated with green light (λmax = 530 nm) or kept in dark, and luminescence rhythms were measured (Fig. 6a, b). […] In addition to the peripheral clock in spleen, we investigated the effect of compound 9 on the central clock in the hypothalamic suprachiasmatic nucleus (SCN) that controls behavioral rhythms. […] Together, compound 9 enabled light-dependent inducible control of the circadian period at both cellular and tissue levels.
Fig. 6 Ex vivo photo-modulation of the circadian period in mouse tissue explants. a–c The spleen explants of the Per2::Luc knock-in reporter mice were applied with 12 µM compound 9 and irradiated with green light (λmax = 530 nm) for 0 min (dark, black) or 30 min (green). Luminescence rhythms were then monitored and shown in a (mean of n = 5 for dark and n = 6 for green light). Baseline-subtracted data are shown in b. Period changes compared to a DMSO control are plotted in c. […] Luminescence is given in arbitrary units. n = 5 biologically independent samples for dark and n = 6 for green light. […] Luminescence rhythms of a representative sample for each condition are shown in d. […]

CC(C)n1cnc2c(NCc3ccc(F)c(/N=N/c4c(F)cccc4F)c3F)ncnc21 [Compound 9]
period after green light reversal (U2OS cells; after time point C): returned to normal | phase delay compared with dark samples, 48 h condition (U2OS cells; violet light activation, reversed by green light after 48 h): 2 h | phase delay compared with dark samples, 72 h condition (U2OS cells; violet light activation, reversed by green light after 72 h): 4 h | period effect after green light irradiation (spleen explants; 530 nm 30 min): suppressed the period-lengthening effect | period effect vs DMSO control, dark (spleen explants; dark): period lengthening
